One assay addresses MtDXR W203Y (Mycobacterium tuberculosis, UniProt P9WNS1, W203Y).
The next assay concerns the target MtDXR W203F (Mycobacterium tuberculosis, UniProt P9WNS1, W203F).

For `O=CN(O)CCCP(=O)(O)O` [fosmidomycin], on MtDXR W203Y, the “binding enthalpy more exothermic than wild type by” value is given as 5.4 kcal/mol and the “enthalpy share of total binding energy (enthalpy-driven binding)” value is on record as 91%. Moreover, at MtDXR W203Y (pH 7.5), the “ΔG°” value is “–11.26 ± 0.19 kcal/mol”, the “ΔH°” value is on record as “–10.2 ± 0.3 kcal/mol” and the “–TΔS°” value was “–1.0 ± 0.4 kcal/mol”. Besides, at MtDXR W203F, the “binding enthalpy more exothermic than wild type by” value stood at 2.8 kcal/mol and the “enthalpy share of total binding energy (enthalpy-driven binding)” value came out at 75%. Also, on MtDXR W203F (pH 7.5), the “ΔG°” value is “–10.10 ± 0.05 kcal/mol”, the “ΔH°” value is reported as “–7.6 ± 0.7 kcal/mol” and the “–TΔS°” value is “–2.5 ± 0.7 kcal/mol”.
